Results on 4 compounds are retold here after publication PMC10976246, “Amide-to-Triazole Switch in Somatostatin-14-Based Radioligands: Impact on Receptor Affinity and In Vivo Stability” (Pharmaceutics, 2024).

Numbered stars: 1 amine (or outer) side, 2 acyl side, 3 side chain; on linkers, the order of the positions; unused ones are H or OH. Bridge positions count the residues as written; N and C are the ends. Square brackets hold non-standard residues; d marks the D form. Peptide text beside a SMILES is read from it. * marks the point of attachment. X2 = O=C([C@H](Cc1ccccc1)n1cc([C@H](Cc2ccccc2)N[*:1])nn1)[*:2]; X1 = NC(=O)C[C@H](N[*:1])c1cn([C@@H](Cc2ccccc2)C(=O)[*:2])nn1; DOTA = O=C(O)CN1CCN(CC(=O)O)CCN(CC(=O)*)CCN(CC(=O)O)CC1

Data set [1] addresses T1, hSST3R (Homo sapiens, UniProt P32745).
T1 construct: S. Schultz (Jena, Germany); host or cells: HEK293
Description: Competition binding against [125I][I-Tyr25]LTT-SST-28, HEK293-SST3R cell membranes. As to conditions: vs [125I][I-Tyr25]LTT-SST-28, 1 h at 22 °C, mean ± sd.
Description: After an incubation period of 1 h at 22 °C, the reaction was stopped by dilution with ice-cold washing buffer (10 mM HEPES at pH 7.4, 150 mM NaCl, 3 mL). The samples were filtered through 1%PEI presoaked glass fiber filters using a Brandel® cell harvester. After thorough washing with ice-cold washing buffer (2 × 3 mL), the filters were collected and measured in the γ-counter.

Data set [2] in a line: in vitro. The class given is in vitro ADME. As to conditions: human, plasma. As to the method:
Plasma stability studies were conducted in vitro by incubating the radioligands (in 100 µL PBS) in 1400 µL of human blood plasma (H4522–20ML, Sigma-Aldrich, Vienna, Austria) to a final concentration of 250 nM (approximately 5 MBq). After an incubation period of 6 h at 37 °C, aliquots of 100 µL were mixed with 100 µL of MeCN for protein precipitation. The mixtures were vortexed and centrifuged for 10 min (15,000× g) at 5 °C and the supernatants were collected. The supernatants (50 µL) were mixed with 0.1% aqueous TFA (50 µL) for posterior γ-HPLC analyses on a Chromolith® RP-18 performance column (2 µm, 4.6 mm × 100 mm; Merck Millipore, Vienna, Austria) eluted at a flow rate of 3 mL/min with the linear gradient from 90% A/10% B to 50% A/50% B in 14 min (A: 0.1% aqueous TFA and B: MeCN) (n = 2).

Data set [3] concerns the target T2, SST2R-expressing AR42J cells (Rattus norvegicus, UniProt P30680).
T2 construct: The SST2R-expressing rat pancreatic cells (AR42J) were cultured; host or cells: AR42J rat pancreatic cells
Description: Receptor saturation binding assay in AR42J cells. As to conditions: 2 h, n = 2–3 in triplicates.
Description: AR42J cells were seeded in six-well plates (1 × 10^6 cells/well) 2 days before the assay. One hour prior to the experiment, the medium was removed, the cells were washed with PBS (1 mL) and fresh assay medium (DMEM with Glutamax-1 and supplemented with 1% FBS (v/v)) was added (1.3 mL/well). […] The determination of the unspecific binding was conducted by incubating each test radioligand in the presence of excess TATE, which was added in 100 μL of PBS to a final concentration of 5 µM. The six-well plates were incubated under standard culturing conditions for 2 h; the medium was removed, the cells were washed with PBS (2 × 1 mL) and lysed as described above. The cell lysates were collected and measured in the γ-counter.

The nature of data set [4]: in vivo. To be noted: male, SCID, mouse, iv, 3 nmol, total radioactivity.
The subject of data set [5] is HEK293-hSST2R xenografts. As to conditions: male, SCID, mouse, in vivo, iv, 3 nmol, 4 h.

T2 sequence (P30680 whole entry): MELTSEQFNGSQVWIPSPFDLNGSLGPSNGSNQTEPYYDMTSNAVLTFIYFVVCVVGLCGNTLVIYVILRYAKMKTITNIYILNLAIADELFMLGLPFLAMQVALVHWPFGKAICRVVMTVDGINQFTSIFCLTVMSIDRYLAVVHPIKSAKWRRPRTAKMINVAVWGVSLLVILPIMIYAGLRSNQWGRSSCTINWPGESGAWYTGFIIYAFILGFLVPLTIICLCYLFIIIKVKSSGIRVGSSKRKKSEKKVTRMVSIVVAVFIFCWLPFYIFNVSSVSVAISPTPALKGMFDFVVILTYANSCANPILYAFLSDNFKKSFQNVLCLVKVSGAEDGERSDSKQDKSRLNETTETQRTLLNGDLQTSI
T1 sequence (P32745 whole entry): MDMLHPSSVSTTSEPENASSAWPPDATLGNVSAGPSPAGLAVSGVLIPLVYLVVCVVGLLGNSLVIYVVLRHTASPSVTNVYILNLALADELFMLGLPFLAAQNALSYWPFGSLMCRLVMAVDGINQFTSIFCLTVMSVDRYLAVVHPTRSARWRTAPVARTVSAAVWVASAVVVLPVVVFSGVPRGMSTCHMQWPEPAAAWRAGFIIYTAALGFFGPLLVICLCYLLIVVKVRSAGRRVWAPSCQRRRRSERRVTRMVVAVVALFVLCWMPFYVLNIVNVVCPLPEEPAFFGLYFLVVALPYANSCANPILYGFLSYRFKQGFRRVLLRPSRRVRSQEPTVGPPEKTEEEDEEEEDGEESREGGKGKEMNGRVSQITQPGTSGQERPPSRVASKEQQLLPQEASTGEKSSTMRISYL

As usually defined, the IC50 is the point on the concentration scale where inhibition reaches its midpoint. A high value points to weaker potency. With `C[C@H](NC(=O)CN1CCN(CC(=O)O)CCN(CC(=O)O)CCN(CC(=O)O)CC1)C(=O)NCC(=O)N[C@H]1CSSC[C@@H](C(=O)O)NC(=O)[C@H](CO)NC(=O)[C@H]([C@@H](C)O)NC(=O)[C@H](Cc2ccccc2)NC(=O)[C@H]([C@@H](C)O)NC(=O)[C@H](CCCCN)NC(=O)[C@@H](Cc2c[nH]c3ccccc23)NC(=O)[C@H](Cc2ccccc2)NC(=O)[C@H](Cc2ccccc2)n2cc(nn2)[C@H](CC(N)=O)NC(=O)[C@H](CCCCN)NC1=O` [XG1, [DOTA,Asn^5-Ψ[Tz]-Phe^6, D-Trp^8]SST-14] ({DOTA}-AGCK[X1]F[dW]KTFTSC-OH; disulfide 3-13), the IC50 in data set [1] worked out at 3 ± 0.9 nM.
For orientation: amount remaining means the share of the starting amount still present when the sample was taken. One may read the Kd as the free concentration of one partner at which half of the binding sites on the other are occupied at equilibrium, for simple one-to-one binding. Low readings indicate higher affinity, high ones lower affinity. Consider `C[C@H](NC(=O)CN1CCN(CC(=O)O)CCN(CC(=O)O)CCN(CC(=O)O)CC1)C(=O)NCC(=O)N[C@H]1CSSC[C@@H](C(=O)O)NC(=O)[C@H](CO)NC(=O)[C@H]([C@@H](C)O)NC(=O)[C@H](Cc2ccccc2)NC(=O)[C@H]([C@@H](C)O)NC(=O)[C@H](CCCCN)NC(=O)[C@@H](Cc2c[nH]c3ccccc23)NC(=O)[C@H](Cc2ccccc2)NC(=O)[C@H](Cc2ccccc2)NC(=O)[C@H](CC(N)=O)NC(=O)[C@H](CCCCN)NC1=O` [[^111In]In-AT2S, metal not drawn, reference compound], for which the amount remaining at 6 h, 250 nM in data set [2] was greater than 90%. The compound further yielded a dissociation constant Kd in data set [3] of 12 ± 3.88 nM.
What is called tissue uptake is the percentage of the injected dose found per gram of tissue. In the case of `C[C@H](NC(=O)CN1CCN(CC(=O)O)CCN(CC(=O)O)CCN(CC(=O)O)CC1)C(=O)NCC(=O)N[C@H]1CSSC[C@@H](C(=O)O)NC(=O)[C@H](CO)NC(=O)[C@H]([C@@H](C)O)NC(=O)[C@H](Cc2ccccc2)NC(=O)[C@H]([C@@H](C)O)NC(=O)[C@H](CCCCN)NC(=O)[C@@H](Cc2c[nH]c3ccccc23)NC(=O)[C@H](Cc2ccccc2)NC(=O)[C@H](Cc2ccccc2)n2cc(nn2)[C@H](CC(N)=O)NC(=O)[C@H](CCCCN)NC1=O` [[^111In]In-XG1, metal not drawn] ({DOTA}-AGCK[X1]F[dW]KTFTSC-OH; disulfide 3-13), the tissue uptake at 4 h in data set [4] (HEK293-hSST2R tumor uptake) is 1.61 %ID/g; in data set [4] (kidney uptake) it was 310 %ID/g; in data set [4] (wtHEK293 (SST2R-negative) control tumor uptake) it was 0.56 %ID/g. This compound gave a fraction remaining at 6 h, 250 nM in data set [2] greater than 90%. This compound also came in with a kidney uptake in data set [5] greater than 200 % IA/g.
Turning to `C[C@H](NC(=O)CN1CCN(CC(=O)O)CCN(CC(=O)O)CCN(CC(=O)O)CC1)C(=O)NCC(=O)N[C@H]1CSSC[C@@H](C(=O)O)NC(=O)[C@H](CO)NC(=O)[C@H]([C@@H](C)O)NC(=O)[C@H](Cc2ccccc2)NC(=O)[C@H]([C@@H](C)O)NC(=O)[C@H](CCCCN)NC(=O)[C@@H](Cc2c[nH]c3ccccc23)NC(=O)[C@H](Cc2ccccc2)n2cc(nn2)[C@H](Cc2ccccc2)NC(=O)[C@H](CC(N)=O)NC(=O)[C@H](CCCCN)NC1=O` [[^111In]In-XG2, metal not drawn] ({DOTA}-AGCKN[X2][dW]KTFTSC-OH; disulfide 3-13), the dissociation constant (Kd) in data set [3] was greater than 50 nM.
